Results: patent US20090089889A9, “Neuromedin u receptor subtype 1 deficient transgenic mice and uses thereof” (priority 2006, published 2009)
Entries after “also recorded” stand apart in the source; their conditions may differ. Where no end group is shown, it is not given here.

Assays:
Assay type in all cases: in vivo, mouse
[1] = system: lean and DIO C57BL/6 mice; test: Ad libitum food intake of lean and DIO mice after rat NMU peptide
Method: (§1) For acute nocturnal feeding studies, ad libitum fed male mice maintained on regular chow were weighed and dosed either intraperitoneally (ip) or icv ˜30 min prior to the onset of the dark phase of the light cycle and provided with a preweighed aliquot of chow which was then weighed two and 18 hours (overnight) after the onset of the dark phase. Mice were again weighed at the later time point. For chronic feeding studies, ad libitum fed male mice normally maintained on regular chow were switched to a palatable moderate fat diet at the initiation of treatment and food intake and body weight were measured daily.

C57BL/6 mice [2] = test: Acute nocturnal feeding study, peripheral (i.p.) NMU in wild-type mice; conditions: i.p. (peripheral) ~30 min before dark phase, measured 18 h later
Method: (§2) Food intake (FIG. 1A) and body weight (FIG. 1B) were measured in C57BL/6 mice dosed intraperitoneally (i.p.) either with vehicle (saline) or with NMU approximately 30 minutes prior to onset of darkness. Measurements were taken about 18 hours later. * indicates p value of <0.05, n=6 per treatment group. In FIGS. 1C and 1D, food intake and body weight are measured in Nmur1 and Nmur2 mice dosed ip with either saline or 30 mg/kg (mkg) NMU about 30 minutes prior to the onset of the dark phase. Measurements were taken 18 hrs later. *, P<0.05 vs. saline, n=6 per treatment group. Nmur1 or Nmur2 mice were dosed i.p. with either vehicle (saline) or 30 mpk NMU ˜30 min. prior to the onset of the dark phase and food intake (C) and body weights (D) were measured 18 h (overnight) later. *, P<0.05 vs. corresponding vehicle; #, P<0.05 vs. Nmu1r+/+, NMU; $, P=0.052; n=10 per treatment group.
(§3) The Nmur1 mice were maintained on a 50% C57BL/6×50% 129S6/SvEv background and Nmur2 mice (licensed from Deltagen) on a 75% C57BL/6×25% 129/OlaHsd background. For comparison with wild-type, 10-12 week-old male C57BL/6 mice were purchased from Taconic Farms. Mice were individually housed in Tecniplast cages in a conventional SPF facility. […]
All resultant measurement values were reported as mean±S.E.M. and data was analyzed by the two-tailed unpaired Student's t test. […]

Nmur1−/− mice [3] = test: Acute NMU administration (peripheral, i.p.) in NMUR1 knockout mice
Method: as §2
Nmur1 knockout (Nmur1^−/−) mice were generated using standard homologous recombination techniques. Briefly, a mouse genomic DNA library was screened with a mouse Nmur1mur cDNA probe, which was generated by PCR. One positive clone was isolated. Two regions of the clone were subcloned into pKO Scrambler NTKV-1904 (Stratagene) and a targeting vector was generated. The targeting vector was linearized by NotI restriction enzyme digestion and transformed into AB2.1 embryonic stem (ES) cells by electroporation with a Bio-Rad Gene Pulser. Transfected cells were cultured with G418 and FIAU for positive and negative selections, respectively. Approximately 500 clones were selected, and 20 correctly targeted ES cell clones were identified by Southern blot analysis. Five correctly targeted ES clones were injected into C57BL/6 blastocysts and these were implanted into pseudopregnant female mice. Several chimeric progeny gave germ-line transmission of the mutant NMUR1 allele and one NMUR1^−/− was established. F3 hybrid mice were used in all experiments
(§4) The Nmur1 mice were maintained on a 50% C57BL/6×50% 129S6/SvEv background and Nmur2 mice (licensed from Deltagen) on a 75% C57BL/6×25% 129/OlaHsd background. For comparison with wild-type, 10-12 week-old male C57BL/6 mice were purchased from Taconic Farms. Mice were individually housed in Tecniplast cages in a conventional SPF facility. Mice were maintained on either regular chow (Teklad 7012: 13.4% kcal from fat; Harlan Teklad), a moderate fat diet (D12266B: 32% kcal from fat; Research Diets, Inc.) or, to induce obesity (DIO), a high fat diet (D12492: 60% kcal from fat; Research Diets, Inc.) with ad libitum access to water in a 12-h light/12-h dark cycle, unless stated otherwise.
as §1

Nmur2−/− mice [4] = test: Acute peripheral (i.p.) NMU administration in NMUR2 knockout mice; conditions: peripherally administered NMU
Method: as §2, §3

C57BL/6 mice [5] = test: Acute nocturnal feeding study, central (i.c.v.) NMU in wild-type mice; conditions: measured 2 h later
Method: (§5) FIG. 2A describes results from an experiment where C57BL/6 mice were dosed intracerebronventricularly (i.c.v) with either vehicle (aCSF) or NMU ˜30 min. prior to the onset of the dark phase and food intake was measured 2 h later. *, P<0.05 vs. vehicle; n=12-24 per group. In FIG. 2B, Nmur1 or Nmur2 mice were dosed i.c.v. with either vehicle (aCSF) or 3 μg NMU ˜30 min. prior to the onset of the dark phase and food intake was measured 2 h later. *, P<0.05 vs. corresponding vehicle; #, P<0.05 vs. Nmur2+/+, NMU; n=14 per treatment group.
(§6) Mice were anesthetized with an intramuscular (im) injection of ketamine (100 mg/kg) and domitor (0.75 mg/kg) and placed in a stereotactic device (Kopf Instruments). […]
as §1, with “Mice were again weighed at the later time point.” left out

Nmur2−/− mice [6] = test: Acute central (i.c.v.) NMU administration in NMUR2 knockout mice; conditions: i.c.v. 3 μg NMU, 2 h
Method: as §5, §6
as §1, with “Mice were again weighed at the later time point.” left out

Nmur1−/− mice [7] = test: Acute central (i.c.v.) NMU administration in NMUR1 knockout mice; conditions: centrally administered NMU
Method: as §5, §6
as §1, with “Mice were again weighed at the later time point.” left out

C57BL/6 mice [8] = test: 7-day chronic s.c. infusion via Alzet micro-osmotic pumps; conditions: C57BL/6 mice, 0.3, 1, 3 or 10 mpk NMU/day s.c. infusion for 7 days
Text: FIG. 3 describes the results from treatment of C57BL/6 mice with either vehicle (H2O); 0.3, 1, 3 or 10 mpk NMU/day; or 10 mpk MTII/day for 7 days via Alzet micro-osmotic pumps implanted sc in the intrascapular space. 7-day cumulative effects on body weight (A), adiposity (B) and food intake (C). *, P<0.05 vs. Vehicle; n=4-10 per treatment group.
(§7) Immediately following surgery, mice were given an im injection of atapimazole. Five days following the initial surgery, mice were again anesthetized and placed in the stereotactic device. Micro-osmotic pumps were removed and replaced with mini-osmotic pumps designed to deliver 0.5 μl/h (Alza Co.) and filled with either aCSF or mouse NMU-23 (Mimotopes) or MTII (Bachem) dissolved in aCSF. The pH of all solutions was adjusted to ˜7 with NaOH. Immediately following surgery, mice were given an im injection of atapimazole. For chronic sc infusions studies, mice were anesthetized and then a micro-osmotic pump designed to deliver 0.5 μl/h and filled with either sterile H2O or mouse NMU-23 (Mimotopes) or MTII (Bachem) dissolved in sterile H2O was implanted subcutaneously in the intrascapular space. The pH of all solutions was adjusted to ˜7 with NaOH. Immediately following surgery, mice were given an im injection of atapimazole.
as §1, with “Mice were again weighed at the later time point.” left out
Whole body composition analysis of conscious live mice was conducted using a Quantitative Magnetic Resonance (QMR) method (EchoMRI™, Echo Medical Systems, Houston, Tex.) (Tinsley et al. (2004) Obesity Research 12:150). […]

C57BL/6 mice [9] = test: 14-day chronic i.c.v. infusion via Alzet mini-osmotic pumps
Method: FIG. 4 depicts treatment of C57BL/6 mice with either vehicle (aCSF); 12, 36 or 120 μg NMU/day; or 4.8 μg MTII/day for 14 days via Alzet mini-osmotic pumps implanted subcutaneously in the intrascapular space and connected with a catheter to a permanent indwelling i.c.v cannula implanted in the dorsal third cerebroventricle. 14-day cumulative effects on body weight (A), adiposity (B) and food intake (C). *, P<0.05 vs. vehicle; n=5-8 per group.
Mice were anesthetized with an intramuscular (im) injection of ketamine (100 mg/kg) and domitor (0.75 mg/kg) and placed in a stereotactic device (Kopf Instruments). For acute i.c.v. studies, a 26-gauge single acute guide cannula (Plastics One) was implanted into the dorsal third cerebral ventricle (0.22 mm posterior, 0.3 mm lateral and 3.3 mm ventral to bregma) and secured to the skull with cyanoacrylate adhesive followed by dental cement. Following surgery, a 33-gauge dummy cannula (Plastics One) was inserted into each guide cannula and mice were given an im injection of atapimazole (5 mg/kg). All cannulated mice were given one week of postoperative recovery, during which time they were handled daily to minimize nonspecific stress. All substances were administered to conscious mice with a repeating dispenser (Hamilton) equipped with a 50-μl Hamilton syringe and 33-gauge needle designed to extend 0.1-0.2 mm beyond the tip of the guide cannula. Mouse NMU-23 (Phoenix Pharmaceuticals) was dissolved in artificial cerebrospinal fluid (aCSF; Harvard Apparatus) and adjusted the pH to ˜7 with NaOH. All substances were injected in a total volume of 1 μl. Mice were given at least a 48-h recovery period between treatments. All acute icv injection studies were of crossover design, a paradigm in which mice initially treated with vehicle are subsequently treated with the agent of interest dissolved in vehicle and vice versa. For chronic icv studies, a 28-gauge osmotic pump connector cannula (Plastics One) was implanted into the dorsal third cerebral ventricle and secured to the skull. Then a micro-osmotic pump designed to deliver 0.5 μl/h (Alza Co.) and filled with aCSF was implanted subcutaneously in the intrascapular space and connected with vinyl tubing to the osmotic pump connector cannula.
as §7
as §1, with “daily. […]” for “daily.”

[10] = system: diet-induced obese C57BL/6 mice; test: Core body temperature after acute i.p. dosing of fasted diet-induced obese mice; conditions: overnight fasted DIO C57BL/6 mice, i.p. 0.3, 1, 3 or 10 mpk NMU, 6 h monitoring
Method: FIG. 5 presents the results of an experiment where overnight fasted diet-induced obese C57BL/6 mice were dosed i.p. with either vehicle (saline); 0.3, 1, 3 or 10 mpk NMU; or 5 mpk MTII. Core temperature is plotted as change from vehicle baseline. A, hourly change. B, 6-h cumulative change.
Body temperature changes were measured as well. Male diet-induced obese mice maintained on a high fat diet were implanted with Mini-Mitter transmitters (Mini Mitter, Bend, Oreg.) prior to the study. Temperature recordings were initiated one day prior to dosing. Mice were fasted overnight and then the following morning 3 h after the onset of the light phase mice were dosed ip. Core body temperature was monitored for 6 h following dosing.

DIO mice = test: 13-day chronic subcutaneous infusion in DIO mice
Method: as §7, §4

[11] = Nmur1−/− transgenic mice, mouse NMU-23 peptide administration, route not stated
[12] = C57BL/6 mice, 12, 36 or 120 μg NMU/day i.c.v. infusion for 14 days
[13] = C57BL/6 mice, 12, 36 or 120 μg NMU/day i.c.v. infusion for 14 days, listed as mouse NMU-23

## rNMU-23: a rat NMU peptide (YKVNEYQGPVAPSGGFFLFRPRN; ends and bridges not checked; UniProt P12760 144-166, looked up)
[1]
  ad libitum food intake: mimic those of the mouse isoform

## NMU: Mouse NMU-23 neuromedin U peptide (Phoenix Pharmaceuticals, Mimotopes), agonist of NMUR1 and NMUR2 (FKAEYQSPSVGQSKGYFLFRPRN; ends and bridges not checked; UniProt Q9QXK8 144-166, looked up)
C57BL/6 mice [2]
  body weight: dose-dependent reduction
  food intake: dose-dependent reduction; also recorded: reduces
Nmur1−/− mice [3]; Nmur1 knockout mice, peripheral (i.p.) 30 mpk NMU, 18 h
  body weight: not seen
Nmur1−/− mice [3]; Nmur1 knockout mice, peripheral (i.p.) 30 mpk NMU, 18 h, 30 mg/kg
  food intake (anorectic action): not seen; also recorded: absent
Nmur1−/− mice [3]; [11]
  body temperature: largely unaffected
  body weight: largely unaffected
  food intake: largely unaffected
Nmur2−/− mice [4]
  anorectic actions (food intake): present
C57BL/6 mice [5]
  food intake: reduces
Nmur2−/− mice [6]
  food intake (anorectic action): do not show the same reduction; also recorded: absent
Nmur1−/− mice [7]
  anorectic actions (food intake): present
C57BL/6 mice [8]
  adiposity, 7-day cumulative: dose-dependent effects; also recorded: reduces
  body weight, 7-day cumulative: dose-dependent effects; also recorded: reduces
  food intake, 7-day cumulative: dose-dependent effects; also recorded: reduces
C57BL/6 mice [9]; 14-day chronic i.c.v. infusion
  body composition: Effects are also seen
C57BL/6 mice [9]; [12]
  adiposity, 14-day cumulative: dose-dependent cumulative effects; also recorded: reduces
  body weight, 14-day cumulative: dose-dependent cumulative effects; also recorded: reduces
  food intake, 14-day cumulative: dose-dependent cumulative effects; also recorded: reduces
C57BL/6 mice [9]; [13]
  body weight, 14-day cumulative: Effects are also seen
  food intake, 14-day cumulative: Effects are also seen
[10]
  core body temperature (change from vehicle baseline): dose-dependent effect; also recorded: dose-dependently increases
DIO mice
  body weight: demonstrable effects
  core temperature: demonstrable effects
  food intake: demonstrable effects
